Assay results: PMC9952338, “Chemical Constituents from Streblus taxoides Wood with Their Antibacterial and Antityrosinase Activities Plus in Silico Study” (Antibiotics, 2023)
Converted amounts (≈) assume the structure as drawn. “Also recorded” adds a separate entry of the source. Read-outs that look alike come from different tables or passages of the source.

How the values were obtained:
[1] = target: tyrosinase enzyme; assay: Enzymatic antityrosinase activity, Dopachrom method with L-DOPA; format: biochemical, mushroom; conditions: for IC50 Values: Experiment of Table 4, reference for the correlation, in µg/mL; for IC50 on tyrosinase inhibitory activity: L-DOPA substrate, pH 6.8, 25 °C
Protocol: The tyrosinase activity was measured by the Dopachrom method using L-DOPA as a substrate. Briefly, 140 μL phosphate buffer (pH 6.8), 20 μL sample solution, and 20 μL tyrosinase solution (203.3 unit/mL) were mixed at 25 °C for 10 min, after which 20 μL of 0.85 mM L-Dopa was added. The optical density (OD) was measured at 492 nm. After incubation at 25 °C for 20 min, the optical density was measured again.

[2] = tested on: B16-F1 melanoma cells; assay: Melanin content; format: cell-based, murine; conditions: 50 µg/mL
Protocol: (§1) The murine B16-F1 melanoma cells (CLS-400122, CLS Cell Lines Service GmbH, Germany) were cultured in Dulbecco’s modified Eagle’s medium, which was supplemented with 10% fetal bovine serum in a humidified incubator at 37 C with 5% CO2. When cells reached 70–80% confluence cell viability, cellular tyrosinase activity and melanin content were measured. The B16-F1 cells were seeded at a density of 3 × 10^5 cells/well on 12-well plates and cultured for 12 h. Cells were treated with test samples and control (0.5% DMSO). After 48 h of incubation, cells were lysed with RIPA and centrifuged at 14,000 rpm for 20 min (4 °C) to separate the cell pellet and supernatant. The supernatant was collected and the protein content was determined by the Bradford method using bovine serum albumin as standard. The supernatant was incubated and 2 mg/mL L-Dopa was added to a 96-well plate at 25 °C for 1 h. After that, optical densities were measured at 492 nm. Then, tyrosinase inhibition was calculated, while the cell pellet was dissolved with 1 M NaOH and incubated at 55 °C for 1 h. Melanin concentration was calculated by comparing the absorbance at 475 nm using a standard curve of synthetic melanin.

[3] = tested on: MITF, tyrosinase, TRP1 and TRP2 in B16-F1 cells; assay: Western blot of melanogenic protein expression; format: cell-based, murine; conditions: 25 and 50 µg/mL
Text: The protein content of the supernatant was quantified by the Bradford method using bovine serum albumin as standard. Equal amounts of protein were separated by 40% acrylamide/Bissolution (InvitrogenThermoFisher Scientific, Waltham, MA, USA) and transferred onto nitrocellulose membranes (BIO-RAD Laboratories, Feldkirchen, Germany). The membranes were probed with antibodies against microphthalmia-associated transcription factor; MITF (ThermoFisher Scientific #MA5-16214, Waltham, MA, USA), tyrosinase (ThermoFisher Scientific #35-6000, Waltham, MA, USA), tyrosinase-related protein 1; TRP1 (ThermoFisher Scientific #OSR00085W, Waltham, MA, USA) and tyrosinase-related protein 2; TRP2 (ThermoFisher Scientific #PA5-36485, Waltham, MA, USA). The proteins were detected using an enhanced chemiluminescence kit (BIO-RAD Laboratories, Hercules, CA, USA). Quantitative analysis was performed using a digital imager (UPV UVP, VisionWork^T LS, Image Acquisition & Analysis Software). The method applied was modified from Western Blot analysis for UGT1A family by the co-author, Asst. Prof. Dr. Wandee Udomuksorn, Pharmacology Program, Division of Health and Applied Science, Faculty of Science, Prince of Songkla University, Thailand., Department of Clinical Pharmacology, Flinders Medical Center.

[4] = tested on: tyrosinase in B16-F1 melanoma cells; assay: Intracellular antityrosinase activity; format: cell-based, murine; conditions: 50 µg/mL, 48 h
Protocol: as §1

[5] = tested on: methicillin-resistant Staphylococcus aureus (DMST20654); assay: MIC and MBC by modified broth microdilution; format: cell-based; conditions: MRSA; for MBC / MIC: Staphylococcus aureus
Protocol: (§2) Microorganisms that cause skin infection, such as Staphylococcus aureus (ATTC 25923), Staphylococcus epidermidis (TISTR 517), Cutibacterium acnes (DMST 14916) and methicillin-resistant Staphylococcus aureus (DMST20654), were selected for this study. The isolated compounds were determined for minimum inhibitory concentration (MIC) in a 96-well plate by modified broth microdilution method and minimum bactericidal concentration (MBC). Oxacillin was used as positive controls for S. aureus, S. epidermidis and C. acnes, while vancomycin was used for MRSA.

[6] = tested on: Cutibacterium acnes (DMST 14916); assay: MIC and MBC by modified broth microdilution; format: cell-based; conditions: C. acnes
Protocol: as §2

[7] = tested on: Staphylococcus epidermidis (TISTR 517); assay: MIC and MBC by modified broth microdilution; format: cell-based; conditions: S. epidermidis; for MBC / MIC: Staphylococcus epidermidis, TISTR517
Protocol: as §2

[8] = tested on: Staphylococcus aureus (ATTC 25923); assay: MIC and MBC by modified broth microdilution; format: cell-based; conditions: S. aureus; for MBC / MIC: Staphylococcus aureus
Protocol: as §2

[9] = tested on: tyrosinase; parameters: method as in PMID 27598113; conditions: cited from earlier work
[10] = listed as 3, 4, 3′, 5′-tetrahydroxybibenzyl

Row | Compound | IC50 Values [1] | IC50 on tyrosinase inhibitory activity [1] [µg/mL] | Melanin content [2] | Intracellular antityrosinase activity [4] | Inhibitory effect (in words) [5] | MBC ([5]; read-out: MBC) [µg/mL] | MIC ([5]; read-out: MIC) [µg/mL] | MBC [6] [µg/mL] | MIC [6] [µg/mL] | Inhibitory effect (in words) [7] | MBC [7] [µg/mL] | MIC [7] [µg/mL] | Inhibitory effect (in words) [8] | MBC [8] [µg/mL] | MIC [8] [µg/mL] | Melanogenic protein expression [3] | further results
1 | CC(=CCc1c(O)cc(-c2cc3ccc(O)cc3o2)cc1O)CO [Compound 1, ω-Hydroxymoracin C] | 109.64 | 109.64 ± 0.89 (≈ 336 µM) | could decrease the melanin content | exhibited antityrosinase activity | stronger inhibitory effect | > 256 | 16 (≈ 49 µM) | > 256 | 128 (≈ 392 µM) | stronger inhibitory effect | 32 (≈ 98.1 µM) | 16 (≈ 49 µM) | stronger inhibitory effect | 32 (≈ 98.1 µM) | 16 (≈ 49 µM) |  | Melanogenic protein expression ([3]; listed as ω-Hydroxymoracin C): downregulated the melanogenic protein expression; Melanogenic protein expression ([3]; listed as ω-hydroxymoracin C): decreasing microphthalmia-associated transcription factor (MITF), tyrosinase (TYR), tyrosinase-related protein 1 (TRP1) and tyrosinase-related protein 2 (TRP2)
2 | CC1(C)C=Cc2c(O)cc(-c3cc4ccc(O)cc4o3)cc2O1 [moracin D] |  |  |  |  |  |  |  |  |  |  |  |  |  |  |  |  | Antityrosinase activity (in words) [9]: did not display antityrosinase activity
3 | CC(C)=CCc1c(O)cc(-c2cc3ccc(O)cc3o2)cc1O [Compound 3, moracin C] | 128.67 | 128.67 ± 1.21 (≈ 415 µM) | could decrease the melanin content | exhibited antityrosinase activity | stronger inhibitory effect | 64 (≈ 206 µM) | 32 (≈ 103 µM) | > 256 | 128 (≈ 412 µM) | stronger inhibitory effect | > 256 | 128 (≈ 412 µM) | stronger inhibitory effect | 64 (≈ 206 µM) | 32 (≈ 103 µM) | decreasing microphthalmia-associated transcription factor (MITF), tyrosinase (TYR), tyrosinase-related protein 1 (TRP1) and tyrosinase-related protein 2 (TRP2); also recorded: downregulated the melanogenic protein expression | 
4 | Oc1cc(O)cc(CCc2ccc(O)c(O)c2)c1 [Compound 4, 3,4, 3′, 5′-tetrahydroxybibenzyl] |  | 35.65 ± 0.98 (≈ 145 µM) |  |  |  | 256 (≈ 1040 µM) | 64 (≈ 260 µM) | > 256 | > 256 |  | > 256 | 128 (≈ 520 µM) |  | 256 (≈ 1040 µM) | 128 (≈ 520 µM) |  | Melanin content [2, 10]: increased the melanin content; also recorded: increase melanin content; Melanogenic protein expression [3, 10]: increasing microphthalmia-associated transcription factor (MITF) and tyrosinase (TYR); also recorded: upregulating the melanogenic protein expression
5 | Cc1onc(-c2ccccc2)c1C(=O)N[C@@H]1C(=O)N2[C@@H]1SC(C)(C)[C@@H]2C(=O)O [Oxa, Oxacillin, reference compound] |  |  |  |  |  |  |  | 0.5 (≈ 1.25 µM) | 0.5 (≈ 1.25 µM) |  | 0.5 (≈ 1.25 µM) | 0.5 (≈ 1.25 µM) |  | 0.125 (≈ 0.311 µM) | 0.125 (≈ 0.311 µM) |  | 
6 | Oc1cc(O)cc(/C=C/c2ccc(O)c(O)c2)c1 [Compound 5, piceatannol] | 149.73 | 149.73 ± 0.86 (≈ 613 µM) | increased the melanin content; also recorded: increase melanin content |  |  | > 256 | 128 (≈ 524 µM) | > 256 | > 256 |  | 128 (≈ 524 µM) | 64 (≈ 262 µM) |  | > 256 | > 256 | increasing microphthalmia-associated transcription factor (MITF) and tyrosinase (TYR); also recorded: upregulating the melanogenic protein expression | 
7 | Oc1cc(O)cc(-c2cc3ccc(O)cc3o2)c1 [Compound 2, moracin M] | 47.34 | 47.34 ± 0.78 (≈ 195 µM) | could decrease the melanin content | exhibited antityrosinase activity | weak inhibitory effect | > 256 | 64 (≈ 264 µM) | > 256 | > 256 | weak inhibitory effect | > 256 | 64 (≈ 264 µM) | weak inhibitory effect | > 256 | 256 (≈ 1060 µM) | decreasing microphthalmia-associated transcription factor (MITF), tyrosinase (TYR), tyrosinase-related protein 1 (TRP1) and tyrosinase-related protein 2 (TRP2); also recorded: downregulated the melanogenic protein expression | 
8 | CN[C@H](CC(C)C)C(=O)N[C@H]1C(=O)N[C@@H](CC(N)=O)C(=O)N[C@H]2C(=O)N[C@H]3C(=O)N[C@H](C(=O)N[C@H](C(=O)O)c4cc(O)cc(O)c4-c4cc3ccc4O)[C@H](O)c3ccc(c(Cl)c3)Oc3cc2cc(c3O[C@@H]2O[C@H](CO)[C@@H](O)[C@H](O)[C@H]2O[C@H]2C[C@](C)(N)[C@H](O)[C@H](C)O2)Oc2ccc(cc2Cl)[C@H]1O [Van, Vancomycin, reference compound] |  |  |  |  |  |  |  |  |  |  |  |  |  |  |  |  | MBC [5]: 0.5 µg/mL (≈ 0.345 µM); MIC [5]: 0.125 µg/mL (≈ 0.0863 µM)
